This note sets out measurements from article PMC4601023, “Novel anticancer agent, SQAP, binds to focal adhesion kinase and modulates its activity” (Scientific Reports, 2015).

Common to all, as to type: cell-based, human
Assay [1] deals with paxillin phosphorylation at Y118 in A549. As to the kind of experiment: Paxillin phosphorylation in A549, Western blotting. Conditions: A549, 21 h treatment, 10 µM. How it is done:
Fibronectin is a glycoprotein located in the extracellular matrix that binds to integrins. […] A549 lung cancer cells have been used before for studying cell migration because of their metastatic model potential. A549 cells are also one of the tumor cell lines sensitive to SQMG[9]. Therefore, we studied the phosphorylation of FAK in A549 cells (Fig. 5C,D). SQAP could inhibit the phosphorylation of FAK at Y397 and Y925 after 1 h treatment in a dose dependent manner. […] We also examined paxillin and Akt phosphorylation in A549 as downstream targets of FAK. […] We hypothesize that SQAP diminish on Akt phosphorylation being more readily in A549 cancer cells than in HUVEC endothelial cells might be due to a higher Akt basal activity on cancer cells.
Cells were harvested and solubilized in RIPA buffer (20 mM Tris-HCl, pH 7.5, 1% Sodium deoxycholate, 150 mM NaCl, 5 mM EDTA, 1% Triton X-100, 0.1% SDS, 0.1%, 1 mM PMSF, 1 mM vanadate and 1 μg/mL leupeptin). Protein quantification was determined using the DC protein assay kit (Bio-Rad, Hercules, CA, USA). A total of 15 μg of each protein sample were separated by SDS–PAGE gels and blotted onto polyvinylidene difluoride membranes (Merck, Kenilworth, NJ, US). […]
A general note: In western blotting, separated proteins are transferred to a membrane and probed.

In assay [2] the test system is A549 cells. Kind of assay: Wound healing assay, A549. To be noted: A549, 25 h, 1% FBS and fibronectin 10 μg/mL; control 46%. How it is done: (§1) Figure 6 SQAP inhibits cell migration in vitro. (A) HUVEC cells were seeded and grown to 100% confluence in 60-mm diameter dishes. After generating a single scratch in the monolayer, the cells were cultured for 11 h in medium containing 1% FBS and VEGF (50 ng/mL) in the presence or absence of SQAP. Photographs were taken immediately after 11 h. (B) The change in wound width was measured as described in the Materials and Methods. (C) A549 cells were seeded and grown to 100% confluence in 60-mm diameter dishes. After generating a single scratch in the monolayer, the cells cultured for the 25 h in media containing 1% FBS and fibronectin (10 μg/ml) treated with SQAP or vehicle. Photographs were collected immediately after wounding and after 25 h. (D) The change in wound width was measured as described in the Materials and Methods. Cell migration was additionally examined in 96 well plates. HUVEC (E) and A549 cells (F) were seeded and grown into confluence overnight. After removing the stoppers, the live cells were stained with CellTracker^TM Green and incubated for the indicated time. The fluorescent emission signal was obtained with a plate reader. […]
Wound healing assay was analyzed by microscope imaging. […] Wound diameters in the images were measured and percentage of wound size was calculated as follows: [wound diameter at 11 or 25 h/wound diameter at 0 h] x 100.

Assay [3] concerns HUVEC cells. Kind of assay: In vitro cell migration assay (Oris kit), HUVEC. To be noted: 96 well cell migration kit. How it is done: as §1, with “After removing the stoppers, the live cells were stained with CellTracker^TM Green and incubated for the indicated time.” left out
Wound healing was additionally assessed in HUVEC or A549 cells using a cell migration kit (Oris, Madison, WI, USA) as described by the manufacturer. […] The fluorescence emission signal in the migration zones was measured on a Wallac Arvo 5x microplate reader (Perkin Elmer, Waltham, MA, USA).

Regarding `CCCCCCCCCCCCCCCCCC(=O)OCCCO[C@H]1O[C@H](CS(=O)(=O)O)[C@@H](O)[C@H](O)[C@H]1O` [SQAP, sulfoquynovosylacylpropanediol], the “paxillin phosphorylation at Y118” value in assay [1] was “inhibition of paxillin phosphorylation at Y118 took 21 h treatment”. In assay [2], this molecule returned a wound size of 68%. For the same molecule, in assay [3], the cell migration result is “arrested”.
